Like-named read-outs stand apart in the source and are kept apart here.

The source of these data is patent US4005084A, “Thienylmethyl phenoxy morpholine compounds” (Yoshitomi Pharmaceutical Industries, Ltd., priority 1975, dated 1977).

In one assay the test system is Shay ulcer. Description: Inhibitory activity on Shay ulcer in rats. The conditions noted are these: Rattus norvegicus, sc, read-out: Inhibitory activity on Shay ulcer, ED50. The assay is classed as in vivo, Wistar rats (female). The protocol:
Female Wistar rats (140-180 g) were fasted for 44 hours but allowed free access to ater after which the pylorus was ligated as described by Shay et al. in the Gastroenterology, vol. […] Immediately after this ligation, test compound was given subcutaneously. Ten hours later, the animals were sacrificed by an overdose of ether, the stomach was removed and examined for lesions. The logarithm of the sum of each damaged area per rat was referred to as the ulcer index.
The Per Cent Inhibition was calculated as follows: [formula]
The ED50 was read from the semilogarithmic graph on which the Per Cent Inhibition was plotted vs. mg/kg dose.

The subject of another assay is gastric motility. Description: Inhibitory activity on gastric motility under stress in rats. The conditions noted are these: Rattus norvegicus, read-out: Inhibitory activity on gastric motility, ED50. The assay is classed as in vivo, Wistar rats (male). The protocol:
The procedure described by K. Watanabe in the Chemical & Pharmaceutical Bulletin, vol.
Male Wistar rats weighing about 250 g were used. After fasting for 18 hours, rats were fixed on their backs by the limbs with thread on boads and immersed into water to the depth of the xiphoid cartilage. Temperature of water was kept at 22° C.
Pressure change in small rubber balloon fixed in the grandular stomach was recorded with pressure transducer (Nihon Koden Kogyo Co., Ltd., MP-4T). The balloon was inserted from the forestomach under light ether anesthesia. Initial pressure was kept at the height of 10 mmHg.
When the effect of anesthesia and of the operation diminished, test compound was administered into the stomach through the polyethylene tube which was previously inserted into the stomach with the balloon.

For a further assay, the system named is gastric secretion. Description: Inhibitory activity on gastric secretion in rats. Format: in vivo, Wistar rats (male). Conditions: Rattus norvegicus, sc, read-out: Inhibitory activity on gastric secretion, ED50. The protocol:
After fasting for 48 hours, the stomach of male Wistar rats weighing about 200 g were ligated at the pylorus under light ether anesthesia as described by Shay et al. in the Gastroenterology, vol. 5, pp. 43-61 (1945). Immediately after this ligation, test compound was given subcutaneously. Four hours later, the gastric juice in the stomach was collected and centrifuged for each rat and expressed as ml per 100 g of body weight.
The ED50 was calculated in the same manner as Test (I) on Shay ulcer.

In assay [1] the target is T1, acetylcholine (contracting action of the guinea pig intestine) (Cavia porcellus).
T1 construct: contracting action of the guinea pig intestine; from tissue; host or cells: guinea pig intestine
Description: Acetylcholine antagonistic activity on contraction of guinea pig intestine. Conditions: negative log10 of molar concentration reducing effect of a double dose of acetylcholine to that of a single dose, read-out: Acetylcholine antagonistic activity, pA2 (converted). The protocol: Acetylcholine antagonistic activity was tested according to the method described by J. M. Van Rossum et al. in the Archives Internationales de Pharmacodynamie et de Therapie, vol. 143, pp. 240-246 and pp. 299-330 (1963). The pA2 is the negative of the logarithm, to the base 10, of the molar concentration of the test compound which reduced the effect of a double dose of acetylcholine on contracting action of the guinea pig intestine compared with that of a single dose.

T1 sequence (H0W1Z3 1-590): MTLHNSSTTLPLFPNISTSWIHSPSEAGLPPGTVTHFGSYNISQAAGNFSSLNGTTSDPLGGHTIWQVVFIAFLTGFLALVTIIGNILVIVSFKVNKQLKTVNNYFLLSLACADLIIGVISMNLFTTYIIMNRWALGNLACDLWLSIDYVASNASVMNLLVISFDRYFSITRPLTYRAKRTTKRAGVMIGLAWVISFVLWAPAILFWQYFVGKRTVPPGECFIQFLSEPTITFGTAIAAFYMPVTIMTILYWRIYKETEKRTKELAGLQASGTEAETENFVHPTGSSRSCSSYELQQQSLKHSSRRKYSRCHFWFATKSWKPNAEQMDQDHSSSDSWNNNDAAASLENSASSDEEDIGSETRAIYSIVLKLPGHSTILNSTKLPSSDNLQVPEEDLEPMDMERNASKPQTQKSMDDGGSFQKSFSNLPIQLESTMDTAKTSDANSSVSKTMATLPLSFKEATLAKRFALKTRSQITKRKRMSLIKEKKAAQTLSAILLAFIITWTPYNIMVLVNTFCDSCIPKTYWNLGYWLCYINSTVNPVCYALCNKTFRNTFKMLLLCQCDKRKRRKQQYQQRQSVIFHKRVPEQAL

Consider `CN1[C@@H]2CC[C@H]1C[C@@H](OC(=O)C(CO)c1ccccc1)C2` (stereo partly shown) [Atropine, reference compound], for which the values for the ED50 in the assay with Shay ulcer (10 h), in the assay on gastric motility and in the assay with gastric secretion (4 h) were 0.5 mg/kg, at most 3 mg/kg and 0.12 mg/kg, respectively.

As to `O=C(O)/C=C\C(=O)O.c1csc(Cc2ccccc2OCC2CNCCO2)c1` (stereo not shown) [Compound A, 2-[2-(2-thenyl)phenoxymethyl]morpholine maleate], the ED50 with Shay ulcer (subcutaneous, immediately after pylorus ligation, examined 10 hours later) was 5.5 mg/kg; with gastric motility (administered into the stomach, stress by water immersion at 22° C) it was 2.1 mg/kg; in the assay on gastric secretion (subcutaneous, immediately after pylorus ligation, gastric juice collected 4 hours later), 4.5 mg/kg. In addition, the Kb in assay [1] was 6.31 µM.
